pIC50: −log10 of the molar value. Counter-ions that a name gives are not always drawn.
Columns and labels:
ACE = biological target: T1, ACE (Oryctolagus cuniculus, UniProt P12822); assay: ACE-inhibitory activity, in vitro (FAPGG substrate); format: biochemical; details: ACE purified from lung rabbit; FAPGG 0.8 mM; 37° C.; 340 nm, 5 minutes; tested as lithium or sodium salts
T1 construct: purchased SIGMA; host or cells: rabbit lung (purified)
T1 sequence (P12822 34-1310): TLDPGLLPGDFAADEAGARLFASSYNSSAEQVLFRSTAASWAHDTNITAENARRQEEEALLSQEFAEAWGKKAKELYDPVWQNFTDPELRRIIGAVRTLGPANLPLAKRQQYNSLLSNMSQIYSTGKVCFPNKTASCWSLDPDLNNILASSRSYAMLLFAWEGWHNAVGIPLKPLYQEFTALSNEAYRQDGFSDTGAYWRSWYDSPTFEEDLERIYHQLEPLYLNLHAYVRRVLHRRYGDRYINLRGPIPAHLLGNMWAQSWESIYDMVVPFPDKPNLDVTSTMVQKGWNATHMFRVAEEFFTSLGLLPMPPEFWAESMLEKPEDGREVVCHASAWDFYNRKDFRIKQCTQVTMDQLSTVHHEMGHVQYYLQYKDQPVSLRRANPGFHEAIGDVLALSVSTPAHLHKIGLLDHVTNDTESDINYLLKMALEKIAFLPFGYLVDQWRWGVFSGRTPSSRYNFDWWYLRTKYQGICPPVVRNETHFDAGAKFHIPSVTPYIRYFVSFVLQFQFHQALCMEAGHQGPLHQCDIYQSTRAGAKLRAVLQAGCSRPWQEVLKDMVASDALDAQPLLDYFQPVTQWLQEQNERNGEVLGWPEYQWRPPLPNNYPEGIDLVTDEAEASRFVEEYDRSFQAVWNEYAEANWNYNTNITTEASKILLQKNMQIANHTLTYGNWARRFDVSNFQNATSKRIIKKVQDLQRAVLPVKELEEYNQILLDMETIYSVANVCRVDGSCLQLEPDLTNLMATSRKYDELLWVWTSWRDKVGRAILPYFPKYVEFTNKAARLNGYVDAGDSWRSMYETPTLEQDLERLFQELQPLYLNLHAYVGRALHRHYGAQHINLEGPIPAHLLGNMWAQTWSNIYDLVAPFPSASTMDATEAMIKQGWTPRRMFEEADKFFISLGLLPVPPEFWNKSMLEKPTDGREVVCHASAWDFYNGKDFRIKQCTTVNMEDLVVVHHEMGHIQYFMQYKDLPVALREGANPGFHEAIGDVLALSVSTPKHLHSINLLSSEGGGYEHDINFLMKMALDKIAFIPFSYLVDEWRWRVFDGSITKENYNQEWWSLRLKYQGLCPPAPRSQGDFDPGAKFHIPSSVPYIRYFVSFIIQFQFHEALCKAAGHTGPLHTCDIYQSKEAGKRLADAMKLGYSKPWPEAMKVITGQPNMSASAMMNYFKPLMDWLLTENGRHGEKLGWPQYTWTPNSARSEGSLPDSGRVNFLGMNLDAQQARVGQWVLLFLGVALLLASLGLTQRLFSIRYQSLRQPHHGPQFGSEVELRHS
Protocol: The ACE-inhibitory activity was evaluated according to the method reported in the literature by B. Holmquist et al., in Analytical Biochemistry 95, 540-548 (1979).
[…] of ACE (250 mU/ml purified by lung rabbit, EC 3.4.15.1 SIGMA) with 50 μl of the compound of formula I were preincubated in thermostated cuvettes at 37° C.
The reaction was started by adding furylacryloylphenylalanylglycylglycine 0.8 mM (FAPGG-SIGMA).
Contemporaneously, by using a Beckman DU-50 spectrophotometer provided with a program for calculating delta A/minutes and regression coefficients of the enzyme kinetics curves, the absorbance at 340 nm was recorded in continuo for 5 minutes.
The percentage of the enzyme inhibition in the preparations treated with the compounds of formula I with respect to the untreated preparations was expressed as IC50 value (nM).
(§1) The compounds of formula I were tested in the form of lithium or sodium salts.

NEP = biological target: T2, NEP (Rattus norvegicus, UniProt P07861); assay: NEP-inhibitory activity, in vitro (kidney cortex membranes, [3H][Leu5]-enkephaline substrate); format: biochemical, male Sprague-Dawley rats; details: rat kidney cortex membranes 5 μg/ml of proteins; [3H][Leu5]-enkephaline 15 nM; pH 7.4; 20 minutes at 30° C.; tested as lithium or sodium salts
T2 construct: Membranes from kidney cortex were prepared; from tissue; host or cells: kidney cortex membranes of male Sprague-Dawley rats
T2 sequence (P07861 1-750): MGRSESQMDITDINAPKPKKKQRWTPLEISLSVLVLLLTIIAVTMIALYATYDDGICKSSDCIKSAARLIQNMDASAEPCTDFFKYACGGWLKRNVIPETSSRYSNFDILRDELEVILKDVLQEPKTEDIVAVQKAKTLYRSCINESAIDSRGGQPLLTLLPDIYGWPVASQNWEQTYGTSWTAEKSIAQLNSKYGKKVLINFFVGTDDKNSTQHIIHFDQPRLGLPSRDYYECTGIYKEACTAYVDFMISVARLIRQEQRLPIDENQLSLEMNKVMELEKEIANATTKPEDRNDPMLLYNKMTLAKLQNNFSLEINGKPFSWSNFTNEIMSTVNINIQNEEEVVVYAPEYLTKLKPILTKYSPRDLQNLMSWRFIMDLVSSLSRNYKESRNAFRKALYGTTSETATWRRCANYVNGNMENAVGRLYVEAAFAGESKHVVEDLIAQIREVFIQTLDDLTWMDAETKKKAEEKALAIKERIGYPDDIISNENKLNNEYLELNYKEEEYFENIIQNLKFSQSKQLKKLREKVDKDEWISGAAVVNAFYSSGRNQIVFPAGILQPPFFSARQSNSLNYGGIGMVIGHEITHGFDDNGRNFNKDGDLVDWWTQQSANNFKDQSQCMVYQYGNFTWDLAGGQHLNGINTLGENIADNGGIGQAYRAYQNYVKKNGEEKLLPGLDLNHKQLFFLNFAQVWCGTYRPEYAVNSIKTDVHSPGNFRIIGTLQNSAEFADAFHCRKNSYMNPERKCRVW
Protocol: The NEP-inhibitory activity was evaluated according to the method reported in the literature by C. Llorens et al., in Eur. J. Pharmacol., 69, (1981), 113-116.
Membranes from kidney cortex were prepared according to the following procedure.
By working at 0°-4° C., kidneys were removed from male Sprague-Dawley rats weighing approximately 300 g.
Cortex was carefully dissected, finely minced and suspended in a homogenization buffer (10 mM sodium phosphate pH 7.4 containing 1 mM MgCl2, 30 mM NaCl, 0.02% NAN3) 1:15 weight/volume.
The tissue was then homogenized for 30 seconds using an Ultra-Turrax homogenizer.
Approximately 10 ml of homogenate were layered over 10 ml of sucrose (41% weight/volume) and centrifuged at 31200 rpm for 30 minutes at 4° C. in a fixed angle rotor.
The membranes were collected from the buffer/sucrose interface, washed twice with 50 mM TRIS/HCl buffer (pH 7.4) and resuspended into the same buffer for storage.
The membranes were stored in small aliquots at -80° C. until use. The NEP-inhibitory activity was evaluated by using the following method.
Aliquots of the membrane suspension prepared as above described (concentration 5 μg/ml of proteins) were preincubated in the presence of an aminopeptidase inhibitor (Bestatin--1 mM) for 10 minutes at 30° C.
[^3 H][Leu^5 ]-enkephaline (15 nM) and buffer TRIS/HCl pH 7.4 (50 mM) were added in order to obtain a final volume of 100 μl. Incubation (20 minutes at 30° C.) was stopped by adding HCl 0.1M (100 μl).
The formation of the metabolite [^3 H]Tyr-Gly-Gly was quantified by chromatography on polystyrene columns (Porapak Q). The percentage of inhibition of the metabolite formation in the membrane preparations treated with the compounds of formula I, in comparison to the untreated membrane preparations, was expressed as IC50 value (nM).
as §1

thermolysin = details: J. Am. Chem. Soc. 1991, 113, 297-307; cited from earlier work

Row | SMILES | pIC50 (ACE) | pIC50 (NEP) | inhibitory activity towards thermolysin (in words) (thermolysin)
1 | CC(C)CC(CP(=O)(O)CCCCc1ccccc1)C(=O)N[C@@H](Cc1ccc(-c2ccccc2)cc1)C(=O)O (stereo partly drawn) [Compound 2, N-[3-[(4-phenylbutyl)(hydroxy)phosphinyl]-2-isobutyl-propionyl]-(1,1'-biphenyl-4-yl)-L-alanine disodium salt] | 7.62 | 6.66 | 
2 | CC(C)CC(CP(=O)(O)CNC(=O)OCc1ccccc1)C(=O)NC(Cc1ccccc1)C(=O)O (stereo not drawn) |  |  | endowed with inhibitory activity towards thermolysin
3 | CC(C)CC(CP(=O)(O)CCCc1ccccc1)C(=O)N[C@@H](Cc1ccc(-c2ccccc2)cc1)C(=O)O (stereo partly drawn) [Compound 1, N-[3-[(3-phenylpropyl)(hydroxy)phosphinyl]-2-isobutyl-propionyl]-(1,1'-biphenyl-4-yl)-L-alanine dilithium salt] | 7.15 | 6.43 | 
4 | CC(C)CC(CP(=O)(O)CNC(=O)Cc1ccccc1)C(=O)N[C@@H](Cc1ccc(-c2ccccc2)cc1)C(=O)O (stereo partly drawn) [Compound 7, N-[3-[(phenylacetylaminomethyl)(hydroxy)phosphinyl]-2-isobutyl-propionyl]-(1,1'-biphenyl-4-yl)-L-alanine] | 6.74 | 7.52 | 
5 | CC(C)CC(CP(=O)(O)CNC(=O)c1ccccc1)C(=O)N[C@@H](Cc1ccc(-c2ccccc2)cc1)C(=O)O (stereo partly drawn) [Compound 6, N-[3-[(benzoylaminomethyl)(hydroxy)phosphinyl]-2-isobutyl-propionyl]-(1,1'-biphenyl-4-yl)-L-alanine] | 8.34 | 8.11 | 

Reference: patent US5739123A, “Phosphinic acid derivatives with metallopeptidase inhibitory activity” (Zambon Group S.p.A., priority 1994, dated 1998)
